The record followed here is US8729097B2, “Quinoline compounds as inhibitors of angiogenesis, human methionine aminopeptidase, and SIRT1, and methods of treating disorders” (The Johns Hopkins University, priority 2008, dated 2014).

The target of one assay is T1, SirT1 (Homo sapiens, UniProt Q96EB6).
T1 sequence (Q96EB6 1-747): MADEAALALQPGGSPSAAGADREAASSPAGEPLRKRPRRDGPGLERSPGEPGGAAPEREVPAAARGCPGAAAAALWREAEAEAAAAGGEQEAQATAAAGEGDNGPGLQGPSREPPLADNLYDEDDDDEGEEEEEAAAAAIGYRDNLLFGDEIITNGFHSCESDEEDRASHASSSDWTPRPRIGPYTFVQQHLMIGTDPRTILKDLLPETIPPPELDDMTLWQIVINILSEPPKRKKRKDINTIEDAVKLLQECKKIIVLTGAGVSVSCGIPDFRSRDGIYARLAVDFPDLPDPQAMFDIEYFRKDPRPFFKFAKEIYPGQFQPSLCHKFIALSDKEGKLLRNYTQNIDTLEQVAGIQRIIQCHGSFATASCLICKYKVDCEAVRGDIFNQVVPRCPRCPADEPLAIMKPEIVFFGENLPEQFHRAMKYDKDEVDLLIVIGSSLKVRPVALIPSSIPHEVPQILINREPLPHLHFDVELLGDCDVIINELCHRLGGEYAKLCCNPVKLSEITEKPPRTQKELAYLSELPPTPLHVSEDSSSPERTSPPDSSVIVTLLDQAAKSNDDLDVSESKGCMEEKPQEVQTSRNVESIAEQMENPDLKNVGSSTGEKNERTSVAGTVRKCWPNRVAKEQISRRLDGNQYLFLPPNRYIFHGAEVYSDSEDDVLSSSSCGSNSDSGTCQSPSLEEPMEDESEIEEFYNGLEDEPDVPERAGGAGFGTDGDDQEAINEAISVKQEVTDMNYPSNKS
Nature of the assay: biochemical. The note with it: SirT1 IC50, recombinant human sirtuin, fluorogenic substrate.

For the next assay, the system named is HFF. The experiment in a line: HFF proliferation (selectivity). The format is cell-based. The note with it: Homo sapiens, HFF; Table 2.
The next assay relates to p53 and p21 mRNA. Nature of the assay: RT-PCR of p53 and p21 mRNA in HUVEC. Type of assay: cell-based, human. The note with it: time-dependent. As for the experimental part:
Total RNA from cells was isolated by Trizol reagent (Invitrogen) according to manufacturer's instruction. The RNA was then reverse transcribed using Superscript III (Invitrogen) and the standard PCR procedure was conducted using specific primer sets for p53 and p21 as following; 5′-[…]-3′ (forward) and 5′-[…]-3′ (reverse) for p53, 5′-[…]-3′ (forward) and 5′-[…]-3′ (reverse) for p21. RT-PCR analysis of GAPDH was used as an internal control for normalization.

In another assay the test system is HUVEC. Nature of the assay: Endothelial cell tube formation assay. Particulars: Matrigel; EX527 1 μM, TNP470 10 nM. The format is cell-based, human. On the procedure:
HUVEC were seeded on a 96-well plate (2×10^4 cells/well) coated with Matrigel. The cells were then incubated for 16˜18 h in a humidified 5% CO2 incubator at 37° C. The cells were washed carefully with PBS once and Calcein-AM solution in PBS was then added to a final concentration of 2 μM. After incubation for an additional 30 min, the cells were washed carefully with PBS and observed under a fluorescence microscope (485 nm excitation/520 nm emission). The tube formed was quantified using AngioQuant v1.33 (The MathWorks).

SMILES strings stand for the structures. Where “and” joins values, the source holds several entries; their conditions need not be identical. Equal entries are not always repeated.

Description for SirT1: The sirtuin fluorometric assay kits were obtained from Biomol. The assay was conducted according to the manufacturer's instruction. One unit of SirT1 was used per reaction. For SirT2 and SirT3, 2 units were used for the assay.

Usually IC50 stands for the concentration that inhibits the measured activity by half. Consider `O=[N+]([O-])c1ccc(O)c2ncccc12` [Entry 1c, nitroxoline], for which the IC50 was 8 µM and 8.5 µM at SirT1; 13.6 µM with HFF. In addition, in the assay with p53 and p21 mRNA, the “p21 mRNA level” value is listed as “increased”. The “p53 mRNA level” value in the assay with p53 and p21 mRNA was “decreased”. In addition, the HUVEC tube formation result in the assay with HUVEC was “inhibited”.
